According to ChEMBL document CHEMBL4000252, “Discovery of N-(2-aminoethyl)-N-benzyloxyphenyl benzamides: New potent Trypanosoma brucei inhibitors” (Bioorg Med Chem, 2017):
pEC50, pIC50: −log10 of the molar value. Activity calls are given as the source filed them. The calls are words filed in the database; no cut-off is given here.

Columns and labels:
[1] = test system: Trypanosoma brucei brucei; assay: Antiparasitic activity against Trypanosoma brucei brucei BF427 assessed as growth inhibition after 48 hrs by Alamar blue assay; format: functional; conditions: BF427, 48 h
[2] = Cytotoxicity against human CRL8155 cells assessed as growth inhibition after 48 hrs by Alamar blue assay; format: cell-based; conditions: crl8155, 48 h
HepG2 = assay: Cytotoxicity against human HepG2 cells assessed as growth inhibition after 48 hrs by Alamar blue assay; format: cell-based; conditions: hepg2, 48 h
[3] = test system: Trypanosoma brucei rhodesiense; assay: Antiparasitic activity against Trypanosoma brucei rhodesiense STIB900 assessed as growth inhibition after 48 hrs by Alamar blue assay; format: functional; conditions: STIB900, 48 h
Cytochrome P450 3A4 = Cytochrome P450 3A4 (Homo sapiens, UniProt P08684); assay: Inhibition of human CYP3A4; format: ADME
Liver = assay: Half life in human liver microsomes at 1.5 uM by LC-MS analysis; format: ADME, microsome
[4] = Ratio of drug level in brain to plasma in mouse at 5 mg/kg, ip after 1 hr by LC-MS analysis; format: ADME, organism-based
[5] = Cmax in mouse at 50 mg/kg, po by LC-MS analysis; format: ADME, organism-based; set-up: dose 50 mg/kg, route oral; conditions: in vivo
[6] = AUC (0 to 8 hrs) in mouse at 50 mg/kg, po by LC-MS analysis; format: ADME, organism-based; set-up: dose 50 mg/kg, time < 8 hr, route oral; conditions: in vivo
[7] = test system: Trypanosoma brucei rhodesiense; assay: Antiparasitic activity against Trypanosoma brucei rhodesiense STIB900 infected in Swiss-Webster mouse assessed as cure rate at 50 mg/kg, bid administered via oral gavage from day 2 to 5 post infection measured after 60 days by microscopic method relative to control; format: functional
[8] = test system: Trypanosoma brucei rhodesiense; assay: Antiparasitic activity against Trypanosoma brucei rhodesiense STIB900 infected in Swiss-Webster mouse assessed as parasitemia rebound time at 50 mg/kg, bid administered via oral gavage from day 2 to 5 post infection by microscopic method; format: functional
[9] = test system: Trypanosoma brucei brucei; assay: Antiparasitic activity against Trypanosoma brucei brucei TREU667 infected in mouse assessed as decrease in parasitemia at 50 mg/kg, bid administered via oral gavage on day 21 to 34 post infection measured on day 34 by microscopic method; format: functional, organism-based
[10] = test system: Trypanosoma brucei brucei; assay: Antiparasitic activity against Trypanosoma brucei brucei TREU667 infected in mouse assessed as decrease in parasitemia at 50 mg/kg, bid administered via oral gavage on day 21 to 34 post infection measured on day 35 by microscopic method; format: functional, organism-based
[11] = test system: Trypanosoma brucei brucei; assay: Antiparasitic activity against Trypanosoma brucei brucei TREU667 infected in mouse assessed as decrease in parasitemia at 50 mg/kg, bid administered via oral gavage on day 21 to 34 post infection measured on day 36 by microscopic method; format: functional, organism-based
[12] = test system: Trypanosoma brucei brucei; assay: Antiparasitic activity against Trypanosoma brucei brucei TREU667 infected in mouse assessed as decrease in parasitemia at 50 mg/kg, bid administered via oral gavage on day 21 to 34 post infection measured on day 40 by microscopic method; format: functional, organism-based

Cytochrome P450 3A4, sequence (P08684 whole entry): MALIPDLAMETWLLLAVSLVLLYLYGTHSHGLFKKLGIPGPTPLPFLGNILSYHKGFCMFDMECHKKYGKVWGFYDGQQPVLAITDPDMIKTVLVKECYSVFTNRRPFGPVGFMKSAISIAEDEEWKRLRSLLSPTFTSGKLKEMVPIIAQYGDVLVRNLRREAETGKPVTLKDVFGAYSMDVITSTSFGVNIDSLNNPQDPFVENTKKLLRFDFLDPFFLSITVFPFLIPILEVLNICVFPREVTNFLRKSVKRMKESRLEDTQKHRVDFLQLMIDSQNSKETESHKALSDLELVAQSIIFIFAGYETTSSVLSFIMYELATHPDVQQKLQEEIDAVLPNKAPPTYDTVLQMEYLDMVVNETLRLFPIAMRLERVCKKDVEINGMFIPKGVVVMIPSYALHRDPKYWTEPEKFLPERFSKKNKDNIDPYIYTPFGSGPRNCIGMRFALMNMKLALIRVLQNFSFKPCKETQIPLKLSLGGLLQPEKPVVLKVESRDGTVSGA

pEC50 [1]: 9.00 | pEC50 [3]: 8.70 | pIC50 (Cytochrome P450 3A4): 6.84 | t1/2 (Liver): > 60 min | BPR [4]: 0.23 | Cmax [5]: 1000 nM | AUC(0-t) at 8 h [6]: 5.58 µM·h
Structure (SMILES): CC(C)c1ccc(COc2ccc(N(CCN)C(=O)c3cccnc3C(F)(F)F)cc2)cc1.Cl
CC50 [2]: 2030 nM | CC50 (HepG2): 3.83 µM | Activity [7]: 67 - 80% | Time [8]: 31 days | Activity [9]: Active | Activity [10]: Active | Activity [11]: Active | Activity [12]: inactive
